Measurements reported in patent US6999905B2, “Method for extracting significant signal, recording medium and program” (priority 2002, dated 2006).

How the values were obtained:
Type in all cases: cell-based
[1] = system: neuron prepared from Lymnaea stagnails
[2] = system: neuron prepared from Lymnaea stagnails; experiment: Electrical signal of a neuron under glutamate, average of standard deviations (Example 1); settings: 0, 0.1, 0.3, 1, 3, 10, 30, or 100 μM glutamate; standard deviation of 100 milliseconds; FIG. 6
Description: FIG. 2 is a schematic diagram showing a configuration of an apparatus and steps used in a signal extracting method according to Example 1 of the present invention. The apparatus comprises a measurement section 101 for continuously measuring action potential generated from a neuron; a computer 100 incorporating a hard disk storing a program for executing a standard deviation calculation step 102 for calculating a standard deviation of measured data every predetermined time, an average calculation step 105 for calculating an average of standard deviation values output every predetermined time, and an activity calculation step 108 for calculating an ion channel activity from an average output from the average calculation step 105; and a data displaying section 110, such as CRT, for displaying the ion channel activity.
The apparatus was used to measure an electrical signal of a neuron which was actually prepared from Lymnaea stagnails where 0, 0.1, 0.3, 1, 3, 10, 30, or 100 μM glutamate was applied to the neuron. The resultant measured data spanning […] was divided into pieces of subdata spanning 100 milliseconds, for each of which a standard deviation was in turn calculated. The average of the standard deviations was plotted in FIG. 6. […]

[3] = system: neuron prepared from Lymnaea stagnails; experiment: Conventional intracellular recording of a neuron before and after glutamate, same signal processing (Example 2, FIG. 8); settings: after application of glutamate, before application 0.181
Description: The curve to the left in FIG. 8 is a histogram of standard deviation values every 5 milliseconds before application of glutamate. The curve to the right in FIG. 8 is a histogram of standard deviation values every 5 milliseconds after the application of glutamate. As indicated in these figures, the averages and half-widths of graphs obtained by approximating the histograms, before and after the application of glutamate, to normal distributions are 0.181 and 0.041, respectively, before the application and 0.534 and 0.204, respectively, after the application. Comparing between the results of FIGS. 7 and 8, the result of the extracellular recording method is similar to that of the intracellular recording method.

[4] = system: neuron prepared from Lymnaea stagnails; experiment: Extracellular recording of a neuron before and after glutamate, normal distribution of standard deviations (Example 2); settings: after application of 50 μM glutamate, before application 0.488
Description: FIG. 3 is a schematic diagram showing a configuration of an apparatus and steps used in a signal extracting method according to Example 2 of the present invention. The apparatus comprises a measurement section 101 for continuously measuring action potential generated from a neuron; a computer 100 incorporating a hard disk storing a program for executing a standard deviation calculation step 102 for calculating a standard deviation of measured data every predetermined time, a normal distribution approximation step 103 for dividing a standard deviation group consisting of a plurality of resultant standard deviations into a plurality of classes having a predetermined width of standard deviation as a unit, and plotting each standard deviation on a coordinate system in which X axis represents the class and Y axis represents the number of the standard deviations existing in each class, an average and half-width calculation step 106 for approximating the resultant graph to a normal distribution, and calculating the average and half-width of the resultant normal distribution, and an activity categorization step 109 for categorizing an ion channel activity based on the resultant average and half-width; and a data displaying section 110, such as CRT, for displaying the ion channel activity. […]

[5] = system: Smooth muscle cells derived from rat aorta vessels; experiment: Potential changes of smooth muscle cells on a semiconductor substrate stimulated with norepinephrine (Example 7); settings: 10 μM norepinephrine; potential changes measured for 60 seconds; FIG. 15
Procedure: Smooth muscle cells derived from rat aorta vessels were cultured on a specially treated semiconductor substrate.
The semiconductor substrate has 100 through holes, each of which has a diameter of 5 μm with the pitch of the through holes being 30 μm, in an area of 1 mm^2. A surface of the semiconductor substrate was coated with 0.01% (w/v) collagen type I solution (Sigma C8919) at a density of 10 μg/cm^2, which was in turn allowed to react at 37° C. for 30 minutes, followed by air drying. Smooth muscle cells derived from rat aorta vessels were cultured on the substrate cleansed with sterilized water. After three days of the culture, the following experiment was conducted.
When measuring ion channel activity, the vessel smooth muscle cells were suctioned by applying a predetermined pressure from the rear side of the semiconductor substrate so that the cells were made to contact the semiconductor substrate. […] In an experimental system, the smooth muscle cells were stimulated with 10 μM norepinephrine, and potential changes were measured for 60 seconds. […] Note that the collection of time-series data was started 10 milliseconds after the start of the experiment, so that measured data was not extracted for the time lag. Thereafter, standard deviations were calculated every 100 milliseconds from the time-series data, thereby clearly extracting ion channel activities due to the stimulant. […]

| SMILES | average of the distribution of standard deviation values every 5 milliseconds [1] | average of the standard deviations (ion channel activity) [2] | average of normal distribution of standard deviation values every 5 milliseconds [3] | average of normal distribution of standard deviation values every 5 milliseconds [4] | average of the normal distribution of standard deviations every 100 milliseconds (ion channel activities) [5] |
| --- | --- | --- | --- | --- | --- |
| NC1=N[C@H](O)[C@H]2[C@H]3O[C@]4(O)O[C@@H]([C@@H](O)[C@@]2(N1)[C@@H]4O)[C@]3(O)CO [TTX, tetrodotoxin] | shifted along the horizontal axis toward the left further than the control |  |  |  |  |
| N[C@@H](CCC(=O)O)C(=O)O [glutamate] | shifted toward the right along the horizontal axis | dependent on glutamate concentration | 0.534 | 0.733 |  |
| NC[C@H](O)c1ccc(O)c(O)c1 [norepinephrine] |  |  |  |  | clearly shifted toward higher class values than when no drug was applied |
